Legend:
[1] = Liver microsomal stability, human; details: 1 μM, Human, 1 hr at 37° C., 1 mg/ml microsomes
Procedure: Briefly, each polyamide was incubated with 1 mg/ml human or mouse microsomes at 37° C. The reaction was incubated in 100 mM KH2PO4, 2 mM NADPH, 3 mM MgCl2 at pH 7.4. Samples were also incubated in the absence of NADPH to detect NADPH-free degradation. After 60 min the samples were mixed with an equal volume of ice cold methanol stop solution. The mixture was allowed to sit on ice for at least 10 min and mixed with an equal volume of water. The samples were then centrifuged to remove the precipitates and the samples were analyzed by LC/MS/MS. Data represents % remaining by comparing with time zero concentration. The experiments were performed in duplicate.

[2] = system: PSA protein secretion by LNCaP cells; assay: Secreted PSA protein by ELISA, LNCaP cells; assay type: cell-based; details: after DHT stimulation, compared with 2 or untreated control
Procedure: LNCaP cells (ATCC) were plated in 24-well plates at a density of 40-50×10^3 cells per well (80-100×10^3 cells per ml) in RPMI medium 1640 (ATCC) supplemented with 10% FBS (Irvine Scientific, Santa Ana, Calif.). After 72 h, the medium was replaced with RPMI medium 1640 containing 10% charcoal stripped FBS with or without polyamides at the designated concentrations. Cells were grown for an additional 48 h and then treated with 1 nM DHT for 16 h. When appropriate, bicalutamide was added 2 h before DHT stimulation. Isolation of RNA and cDNA synthesis was performed as described (21). Quantitative real-time RT-PCR was performed with SYBR Green PCR Master Mix (Applied Biosystems, Foster City, Calif.) on an ABI 7300 instrument. PSA mRNA was measured relative to β-glucuronidase as an endogenous control. Primer sequences are available upon request. Cell-culture supernatants were collected for an ELISA (R & D Systems, Minneapolis, Minn.) to measure PSA protein according to the manufacturer's protocol.

p53 target genes = assay: Quantitative RT-PCR of p53 target genes in LNCaP cells; assay type: cell-based
Procedure: (§1) RNA was extracted using RNEasy columns (Qiagen) according to manufacturer's protocols. cDNA was generated from RNA by reverse transcriptase (Transcriptor First Strand cDNA kit, Roche). Quantitative real-time RT-PCR was performed using SYBR Green PCR Master Mix (Applied Biosystems) on an ABI 7300 instrument. mRNA was measured relative to B glucuronidase as an endogenous control.
The cells were then treated with 1, 3, and 10 μM of 78 for 72 h. Total cellular RNA was extracted using RNEasy columns (Qiagen) following the manufacturer's protocols. Isolated RNA was reverse transcribed with Transcriptor First Strand cDNA kit (Roche). Quantitative real-time PCR was performed using SYBR Green PCR Master Mix (Applied Biosystems) on an ABI 7300 instrument. Amplification of p21, IGFBP3, and GADD45A cDNA was measured relative to β-glucuronidase using previously published primers (24). Experiments were performed in biological replicates.

[3] = Escalating single dose subcutaneous injections, male C57BL/6J mice (weight, histopathology, serum)
RPB1 mRNA = assay: Quantitative RT-PCR of RPB1 transcript in LNCaP cells; assay type: cell-based; details: 10 μM
Procedure: as §1

[4] = system: PSA mRNA expression in LNCaP cells; assay: DHT-induced PSA mRNA in LNCaP cells, quantitative real-time RT-PCR; assay type: cell-based
[5] = system: transcripts in DHT-stimulated LNCaP cells; assay: Gene expression with Affymetrix Human Genome U133 Plus 2.0 arrays, DHT-stimulated LNCaP cells; assay type: cell-based
Procedure: LNCaP cells were plated in 12-well plates at a density of 80-100×10^3 cells per well. Media, polyamide treatments, and time courses were the same as described above. Bicalutamide was added 2 h before DHT stimulation. RNA was isolated as described in ref. 21. From this point, experiments were carried out at the Millard and Muriel Jacobs Gene Expression Facility at the California Institute of Technology. Labeled mRNA was hybridized to Affymetrix high-density Human Genome U133 Plus 2.0 arrays according to established protocols. Gene expression was analyzed by using Resolver (Rosetta Biosoftware, Seattle, Wash.). Data were uploaded to the Gene Expression Omnibus repository (accession no. GSE7708).
Global effects of polyamides 1 and 2 and bicalutamide on gene expression in DHT-stimulated LNCaP cells were monitored with Affymetrix (Santa Clara, Calif.) high-density Human Genome U133 Plus 2.0 arrays, which interrogate >50,000 transcripts.

RNAP2 large subunit RPB1 = assay: Immunoblot of RPB1 protein in LNCaP cells; assay type: cell-based
Procedure: (§2) Samples for immunoblot analysis were prepared by plating LNCaP or DU145 cells at 1 million cells per 10 cm plate. Cells were allowed to adhere for 24-36 hr prior to incubation with compound. After the appropriate incubation time cells were washed once with ice cold PBS and harvested in ice cold 125 μL lysis buffer (50 mM Tris-HCl pH 7.4, 150 mM NaCl, 1 mM EDTA, 1% Triton X100) containing protease inhibitor cocktail (Roche), 1 mM PMSF (Sigma), and phosphatase inhibitors (Sigma). Samples were allowed incubate on ice for 10 min with vortexing once every 3 min. Cellular debris was pelleted by spinning at 14,000 rpm for 15 min to collect the supernatant. Samples were then quantified for protein content with the Bradford assay (Bio-rad) and boiled with 4× sample buffer (Li-Cor) for 5 min. Protein electrophoresis was performed in 4-20% precast Tris glycine SDS gels (Bio-rad) and transferred to PVDF membranes. Membrane blocking was done with Odyssey Blocking Buffer (Li-Cor). The following antibodies used to probe changes in protein levels or phosphorylation states: RBP1 (Santa Cruz Biotechnology, N20), p53 (Santa Cruz Biotechnology, DO1), phospho-Chk2-Thr68 (Cell Signaling Technology), Phospho-p53-Ser15 (Cell Signaling Technology), phosphor-H2A.X-Ser139 (Cell Signaling Technology), phosphor-ATM-Ser1981 (Abcam), phosphor-DNA-PKcs-Ser2056 (Abcam), and […] (Abcam). […]

[6] = system: DNA damage markers (γH2A.X, ATM, DNA-PKcs, p53, Chk2); assay: Immunoblot of DNA damage markers, p53 and PARP in LNCaP cells; assay type: cell-based
Procedure: as §2

[7] = 10 μM, + DHT, relative to DHT-induced controls, p ≦ 0.01
[8] = relative to DHT-induced controls, + DHT

CN(CCCNC(=O)c1cccc(C(=O)O)c1)CCCNC(=O)c1cc(NC(=O)c2cc(NC(=O)c3cc(NC(=O)c4nc(NC(=O)[C@H](N)CCNC(=O)c5cc(NC(=O)c6cc(NC(=O)c7cc(NC(=O)c8nccn8C)cn7C)cn6C)cn5C)cn4C)cn3C)cn2C)cn1C [Polyamide 1, ImPyPyPy-2-(R)H^2Nγ-ImPyPyPy-NHMe-IPA]
Mean remaining parent NADPH-free [1]: 92.3%
Mean remaining parent with NADPH [1]: 96.9%
supernatant concentrations of PSA protein [2]: reduced
induction of p53 target genes (p53 target genes): induced expression of p53 genes
tolerability, behavior and morbidity after single SC dose ([3]; 1, 3, 10 mg/kg): no change in behavior and appearance
weight loss after single SC dose ([3]; 1, 3, 10 mg/kg, 9 days): significant weight loss only at 10 mg/kg
liver histopathology ([3]; single SC 3 mg/kg): Mild hepatocellular necrosis and apoptosis
kidney histopathology ([3]; single SC 10 mg/kg): Milder tubular regeneration and karyomegaly
liver histopathology ([3]; single SC 10 mg/kg): Mild hepatocellular necrosis and apoptosis
serum kidney markers creatinine and BUN ([3]; single SC dose): not observed for any dose level
serum liver markers AST, ALT, total bilirubin ([3]; single SC dose): significant elevation of AST, ALT, and total bilirubin at 10 mg/kg, indicative of acute damage to liver cells, and moderate elevation of ALT at 3 mg/kg
expression of RPB1 mRNA (RPB1 mRNA): modestly increased
AR mRNA [4]: minimally affected
effects on cell growth ([4]; LNCaP, over the course of the experiment): no obvious detrimental effects on cell growth
Number of transcripts down-regulated (fold change ≦ −2.0) [5, 7]: 706
Number of transcripts down-regulated (fold change ≦ −4.0) [5, 7]: 126
Number of transcripts up-regulated (fold change ≧ 2.0) [5, 7]: 347
Number of transcripts up-regulated (fold change ≧ 4.0) [5, 7]: 42
number of transcripts affected by at least 2-fold ([5]; 10 μM, P≦0.01, vs DHT-induced controls): 1,053
share of interrogated transcripts affected ([5]; 10 μM, at least 2-fold): less than 2%
share of transcripts induced at least 4-fold by DHT whose expression is inhibited ([5]; LNCaP cells): ≈ 35%
number of the 88 DHT-repressed transcripts derepressed at least 2-fold ([5]; P≦0.01): eight
number of the 199 DHT-induced transcripts inhibited at least 2-fold ([5]; P≦0.01): 70
Fold-change of FKBP5 [5, 8]: −3.1
Fold-change of KLK2 [5, 8]: −2.4
Fold-change of KLK3 (PSA) [5, 8]: −3.3
Fold-change of TMPRSS2 [5, 8]: −2.3
RPB1 protein level (RNAP2 large subunit RPB1): depletion of RPB1 in a time- and concentration-dependent manner
cellular markers of DNA damage (phosphorylation) [6]: did not induce cellular markers of DNA damage
p53 accumulation and PARP cleavage [6]: modest accumulation of p53 and PARP cleavage were observed

— US20170260169A1, “INHIBITORS FOR STEROID RESPONSE ELEMENTS AND RNA POLYMERASE II AND RELATED METHODS” (priority 2007, published 2017)
